Where “and” joins values, the source holds several entries; their conditions need not be identical. Equal values may be shown once.
Test system: imiquimod-induced psoriasis
Assay: Imiquimod-induced psoriasis model
Type: in vivo, mice
Conditions: for Body Weight D1: Day 1 (before treatment start on Day 8); for Body Weight D1 / Body Weight D3 / Body Weight D5 / Body Weight D7 / Body Weight D8 / Body Weight D9 / Body Weight D10 / Body Weight D11 / Body Weight D12 / Body Weight D13 / Body Weight D14 / Body Weight D15 / MBWC D1-D8 / MBWC D8-D15 / PASI Scores: individual animals; for Body Weight D3: Day 3 (before treatment start on Day 8); for Body Weight D5: Day 5 (before treatment start on Day 8); for Body Weight D7: Day 7 (before treatment start on Day 8); for Body Weight D8: Day 8 (first day of treatment); for Body Weight D9: Day 9; for Body Weight D10: Day 10; for Body Weight D11: Day 11; for Body Weight D12: Day 12; for Body Weight D13: Day 13; for Body Weight D14: Day 14; for Body Weight D15: Day 15; for MBWC D1-D8: body weight change Day 1 to Day 8 (before treatment); for MBWC D8-D15: body weight change Day 8 to Day 15 (treatment period); for PASI Scores: IMI + Compound B 1 mg/kg
In short: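 Mice given topical imiquimod (5% cream) daily on depilated backs Days 1–14; Compound A in 5% DMSO/40% PEG-400/55% saline from Day 8, clobetasol topical as reference. Daily PASI (erythema, induration, peeling, each 0–4, summed) Days 8–15; spleen weight, open-field behaviour, serum IL-1B, IL-6, IL-17, TNF-α, IL-22, IL-23 at Day 15.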

[1] = IMI + 1 mg/kg, 1 mg/kg, in g (unit assumed)
[2] = IMI + 3 mg/kg, 3 mg/kg, in g (unit assumed)
[3] = IMI + 10 mg/kg, 10 mg/kg, in g (unit assumed)

COCCn1cc(-c2ccccc2)c(-c2cn(C)c(=O)c3[nH]c(-c4cnn(C(F)(F)F)c4)cc23)cc1=O [Compound B, 4-(1-(2-methoxyethyl)-2-oxo-5-phenyl-1,2-dihydropyridin-4-yl)-6-methyl-2-(1-(trifluoromethyl)-1H-pyrazol-4-yl)-1,6-dihydro-7H-pyrrolo[2,3-c]pyridin-7-one]
symptoms by day 15 (representative images) (10 mg/kg (printed 10 mg/ml)): nearly entirely symptom free
mean PASI score on day 15, dose dependence (1, 3, 10 mg/kg, 10 mg/kg most effective): dose-dependent decrease in PASI scores
efficacy on the treatment of psoriasis (2 lowest doses of 1.0 and 3.0 mg/kg bw): moderate efficacy
Body Weight D1 (IMI + 1 mg/kg, 1 mg/kg): 17.85 and 16.71 and 18.14 (2×) and 17.67 and 18.64 and 18.37 and 17.36
Body Weight D3 [1]: 16.05 and 15.75 and 16.34 and 16.73 and 17.52 and 16.25 and 15.31 and 17.36
Body Weight D5 [1]: 15.71 and 15.27 and 17.54 and 16.77 and 17.97 and 16.83 and 15.98 and 16.57
Body Weight D7 [1]: 16.02 and 15.76 and 17.96 and 17.02 and 17.69 and 17.48 and 16.75 and 17.68
Body Weight D8 [1]: 15.83 and 15.34 and 17.54 and 16.58 and 17.61 and 16.23 and 16.35 and 17.45
Body Weight D9 [1]: 15.70 and 15.29 and 17.68 and 16.64 and 17.26 and 15.94 and 16.69 and 17.21
Body Weight D10 [1]: 15.94 and 15.03 and 17.60 and 16.38 and 17.13 and 16.08 and 15.92 and 17.66
Body Weight D11 [1]: 16.10 and 14.61 and 17.64 and 16.08 and 17.41 and 16.29 and 16.64 and 17.72
Body Weight D12 [1]: 16.03 and 14.93 and 17.80 and 16.29 and 17.39 and 16.49 and 16.17 and 17.53
Body Weight D13 (IMI + 1 mg/kg, 1 mg/kg): 16.53 and 14.84 and 18.05 and 16.45 (2×) and 17.04 (2×) and 16.34
Body Weight D14 [1]: 16.38 and 14.75 and 18.20 and 16.97 and 17.80 and 16.16 and 16.37 and 17.46
Body Weight D15 [1]: 16.34 and 14.67 and 18.01 and 16.62 and 17.29 and 16.44 and 16.12 and 17.36
MBWC D1-D8 (IMI + 1 mg/kg, 1 mg/kg): −2.02 and −1.37 and −0.60 and −1.09 and −1.03 and −2.14 and −1.01 and −0.69
MBWC D8-D15 (IMI + 1 mg/kg, 1 mg/kg): 0.51 and −0.67 and 0.47 and 0.04 and −0.32 and 0.21 and −0.23 and −0.09
Body Weight D1 [2]: 16.04 and 18.93 and 17.71 and 17.81 and 16.63 and 17.34 and 17.52 and 18.08
Body Weight D3 [2]: 13.11 and 16.65 and 15.84 and 16.79 and 15.99 and 16.64 and 14.93 and 16.90
Body Weight D5 [2]: 14.01 and 16.29 and 15.26 and 17.65 and 16.66 and 17.47 and 16.35 and 16.80
Body Weight D7 [2]: 14.25 and 16.26 and 15.31 and 17.34 and 16.40 and 17.79 and 16.44 and 16.80
Body Weight D8 (IMI + 3 mg/kg, 3 mg/kg): 13.57 and 15.67 and 15.44 and 17.59 and 16.51 (2×) and 17.07 and 16.13
Body Weight D9 [2]: 13.93 and 15.56 and 15.22 and 17.78 and 16.23 and 17.14 and 15.89 and 16.28
Body Weight D10 (IMI + 3 mg/kg, 3 mg/kg): 14.23 and 15.76 (2×) and 17.87 and 16.28 and 17.32 and 15.99 and 16.22
Body Weight D11 [2]: 13.97 and 16.26 and 15.22 and 17.70 and 16.63 and 16.90 and 16.81 and 17.13
Body Weight D12 [2]: 14.44 and 16.57 and 15.46 and 17.60 and 17.05 and 16.97 and 16.65 and 17.68
Body Weight D13 [2]: 13.94 and 16.60 and 15.54 and 17.74 and 16.71 and 17.05 and 16.35 and 17.58
Body Weight D14 [2]: 13.70 and 16.12 and 15.70 and 17.96 and 17.04 and 17.47 and 16.08 and 17.19
Body Weight D15 (IMI + 3 mg/kg, 3 mg/kg): 13.78 and 16.88 and 15.93 and 18.05 and 17.29 (2×) and 17.08 and 15.94
MBWC D1-D8 (IMI + 3 mg/kg, 3 mg/kg): −2.47 and −3.26 and −2.27 and −0.22 and −0.12 and −0.27 and −1.39 and −1.57
MBWC D8-D15 (IMI + 3 mg/kg, 3 mg/kg): 0.21 and 1.21 and 0.49 and 0.46 and 0.78 (2×) and 0.01 and −0.19
Body Weight D1 [3]: 18.66 and 16.97 and 17.99 and 16.59 and 14.70 and 18.45 and 16.88 and 17.79
Body Weight D3 (IMI + 10 mg/kg, 10 mg/kg): 16.89 and 15.12 (2×) and 16.64 and 15.35 and 12.66 and 15.18 and 15.47
Body Weight D5 [3]: 16.85 and 16.05 and 17.14 and 16.55 and 13.95 and 16.19 and 15.85 and 16.46
Body Weight D7 (IMI + 10 mg/kg, 10 mg/kg): 17.09 and 15.74 and 18.31 and 16.60 and 14.04 and 16.64 (2×) and 16.00
Body Weight D8 [3]: 16.51 and 15.56 and 18.14 and 16.14 and 14.02 and 16.16 and 15.50 and 16.26
Body Weight D9 [3]: 16.61 and 15.20 and 17.85 and 15.85 and 13.92 and 15.86 and 15.31 and 16.41
Body Weight D10 [3]: 16.48 and 15.64 and 18.33 and 16.10 and 13.59 and 15.70 and 15.00 and 15.80
Body Weight D11 [3]: 16.44 and 15.87 and 17.94 and 16.30 and 14.37 and 16.54 and 16.26 and 16.95
Body Weight D12 [3]: 16.63 and 16.40 and 18.54 and 16.96 and 14.74 and 16.69 and 16.23 and 17.34
Body Weight D13 [3]: 17.12 and 16.52 and 18.44 and 16.93 and 14.68 and 16.17 and 16.27 and 16.95
Body Weight D14 [3]: 17.36 and 16.91 and 18.32 and 17.28 and 15.12 and 16.21 and 16.48 and 17.35
Body Weight D15 [3]: 18.01 and 16.93 and 18.51 and 17.31 and 15.47 and 16.86 and 16.66 and 17.96
MBWC D1-D8 (IMI + 10 mg/kg, 10 mg/kg): −2.15 and −1.41 and 0.15 and −0.45 and −0.68 and −2.29 and −1.38 and −1.53
MBWC D8-D15 (IMI + 10 mg/kg, 10 mg/kg): 1.50 and 1.37 and 0.37 and 1.17 and 1.45 and 0.70 and 1.16 and 1.70
PASI Scores (D8 (day treatment started)): 7 (2×) and 6 (3×) and 8 (3×)
PASI Scores (D9): 8 (3×) and 9 and 5 (3×) and 6
PASI Scores (D10): 6 (4×) and 5 (2×) and 7 (2×)
PASI Scores (D11): 8 and 6 (4×) and 4 and 7 and 9
PASI Scores (D12): 6 (6×) and 4 and 5
